Legend:
Type in all cases: cell-based, human
[1] = tested on: S1P1 surface expression in SupT1 wildtype (SupT1) cells; test: S1P1 cell surface staining (fluorescence cytometry), mock transfected / control SupT1 cells; settings: PAK2 inhibition (5 μM FRAX597) in mock transfected cells
Method: (§1) S1P1 cell surface staining. For assessing Nef-dependent S1P1 regulations, stably transfected T cells (SupT) resulting in estrogen inducible Nef expression (Nef-ER) were used (see Lee J. H. et al. HIV Activates the Tyrosine Kinase Hck to Secrete ADAM Protease-Containing Extracellular Vesicles. EBIOMEDICINE 2018, 28:151-161). Upon treatment with tamoxifen (1 μM; established using CD4 downregulation) for 16 hours, fluorescence cytometry analysis was performed with an anti-S1P1 monoclonal antibody coupled to eFluor 660 (SW4GYPP, EBIOSCIENCE™).
(§2) HIV-Nef Leads to S1P1 Downregulation and Impaired Migration of T cells to S1P1 Gradients. The effect of Nef on regulation of S1P1 surface expression was examined using a recombinant human T cell line (SupT1), which stably expresses a tamoxifen inducible Nef (Nef-ER). Upon treatment with tamoxifen (1 μM) for 16 hours (as established for CD4 downregulation—see e.g., Walk S. F. et al., Design and use of an inducibly activated human immunodeficiency virus type 1 Nef to study immune modulation. J VIROL 2001; 75 (2):834-843), fluorescence cytometry analysis was performed with an anti-S1P1 monoclonal antibody coupled to eFluor 660 (SW4GYPP, EBIOSCIENCE™). […] To determine whether there was a specific pathway involved in HIV-Nef dependent S1P1, downregulation, PAK2 signaling was tested. […]

[2] = tested on: Nef-ER cells (SupT1) migration towards S1P gradient; test: Migration assay through collagen I-coated transwell chambers towards S1P; settings: pretreatment with PAK2 inhibitor (5 μM); 4HT-activated Nef-ER cells; 100 nM S1P, 4 hours, 37° C.; FIG. 1B
Method: Migration assay. 4-Hydroxy tamoxifen (4HT) activated SupT1 control and Nef-ER cells were labeled with 2.5 uM Calcein-AM, washed using centrifugation and resuspended in phenol red free RPMI containing 0.1% fatty acid free BSA. These cells were loaded on the top chamber of collagen I-coated 4 micron transwell chambers as previously described (see, e.g., Iino J. et al. Platelet-derived sphingosine 1-phosphate induces migration of Jurkat T cells. LIPIDS HEALTH DIS 2014, 13:150). Briefly, cells were allowed to transmigrate,
This downregulation can lead to reduced chemotactic migration towards S1P as evidenced from experiments when 4 HT activated. SupT1I control and Nef-ER cells were tested for migration through collagen I-coated transwell chambers towards S1P gradients as previously described for Jurkat T cells (Iino J. et al. 2015).

[3] = tested on: S1P1 surface expression in SupT1 cells stably expressing tamoxifen-inducible HIV-1SF2-Nef-estrogen receptor construct (Nef-ER); test: S1P1 cell surface staining (fluorescence cytometry), tamoxifen-activated Nef-ER cells; settings: 5 μM FRAX597, Nef activated with tamoxifen (1 μM) 16 hours, FIG. 1A/1D
Method: as §1, §2

CCn1c(=O)c(-c2ccc(-c3cncs3)cc2Cl)cc2cnc(Nc3ccc(N4CCN(C)CC4)cc3)nc21 [FRAX597]
S1P1 surface expression [1]: downregulation of S1P1
S1P1 surface expression ([1]; listed as PAK2 inhibitor): downregulation of S1P
Migration to bottom chamber containing S1P [2]: not only restored the effect of NEF-ER but also showed significant increase in migration
S1P1 surface expression [3]: not only restored S1P1 surface expression, but also increased S1P1 surface expression
S1P1 surface expression ([3]; listed as FRAX 597): restored S1P1 surface expression

Source: US20220079948A1, “COMPOSITIONS AND METHODS FOR SUPPRESSING AND/OR TREATING HIV-INFECTION AND/OR A RELATED CLINICAL CONDITION THEREOF” (Indiana University Research And Technology Corporation, priority 2018, published 2022)
